Like-named read-outs stand apart in the source and are kept apart here. Marks after values point to notes of the source that are not given here.
Key:
Sperm whale Mb(II) [1] = system: Sperm whale Mb(II); set-up: method as in PMID 3733708; conditions: pH 7.0, 20.0°C; cited from earlier work
Mt-trHbN(II) [2] = biological target: T1, Mt-trHbN(II) (Mycobacterium tuberculosis, UniProt P9WN25); type: binding
T1 construct: made in house

Sperm whale Mb(II) [3] = biological target: Sperm whale Mb(II); set-up: method as in ref 58 = [58]; 58 Antonini E, Brunori M (1971) Hemoglobin and myoglobin in their reactions with ligands. Amsterdam, London: North Holland Publishing Co.; conditions: read-out: B for O2 binding to sperm whale Mb(II); pH 7.0, 20.0°C; cited from earlier work
Mt-trHbN(II) [4] = biological target: T1, Mt-trHbN(II); experiment: O2 binding to Mt-trHbN(II) in the absence and presence of isoniazid (tonometer method)
Procedure: The value of B was determined by the tonometer method adding small volumes of air to the Mt-trHbN(II) solution (1.3×10^−6 M), in the absence and presence of isoniazid ( = 1.0×10^−2 M; B ^obs).

| SMILES | f off for CO binding to sperm whale Mb(II) (Sperm whale Mb(II) [1]) | f on for CO binding to sperm whale Mb(II) (Sperm whale Mb(II) [1]) | amplitude (1 – a) of the CO binding process (slow phase) (Mt-trHbN(II) [2]) | amplitude a of the CO binding process (Mt-trHbN(II) [2]) | amplitude a of the CO binding process (isoniazid-free fraction, fast phase) (Mt-trHbN(II) [2]) | f obs, pseudo-first order rate constant for CO binding (Mt-trHbN(II) [2]) [s⁻¹] | f obs, pseudo-first order rate constant for CO binding (fast phase) (Mt-trHbN(II) [2]) [s⁻¹] | f obsi, pseudo-first order rate constant for CO binding in the presence of isoniazid (slow phase) (Mt-trHbN(II) [2]) [s⁻¹] | second-order association rate constant f on for CO binding to Mt-trHbN(II) (Mt-trHbN(II) [2]; pH 7) | Kd (Sperm whale Mb(II) [3]) [µM] | Kd (Mt-trHbN(II) [4]; [isoniazid] = 1.0×10^−2 M, from B and D, read-out: B obs calculated according to Equation 16) [µM] | P 50 for O2 binding to Mt-trHbN(II) in the presence of isoniazid (Mt-trHbN(II) [4]; [isoniazid] = 1.0×10^−2 M, corresponds to B obs) | P 50 for O2 binding to Mt-trHbN(II) (Mt-trHbN(II) [4]; absence of isoniazid, corresponds to B) | Kd (Mt-trHbN(II) [4]; read-out: dissociation equilibrium constant B for O2 binding to Mt-trHbN(II), absence of isoniazid, pH 7.0, 20.0°C, Equation 15) [µM] |
| --- | --- | --- | --- | --- | --- | --- | --- | --- | --- | --- | --- | --- | --- | --- |
| [C-]#[O+] [CO] | f off = 1.9×10^−2 s^−1h | f on = 5.1×10^5 M^−1 s^−1 ^h | 0.62 | 1 | 0.38 | 170 | 170 | 1.5 | f on = (3.8±0.5)×10^6 M^−1 s^−1 |  |  |  |  |  |
| O=O [O2] |  |  |  |  |  |  |  |  |  | 0.52 | 0.41 | (2.3±0.3)×10^−1 mm Hg | (2.4±0.4)×10^−2 mm Hg | 0.044 |
